For experiment [1], the system named is PRMT1. As to conditions: ref [15]–[17]; cited from earlier work.
The target in experiment [2] is T1, PRMT1 (Homo sapiens, UniProt Q99873). Briefly: Active PRMT1 in MCF-7 cytoplasmic extracts after estrogen stimulation. The experiment is classed as cell-based.
The target of experiment [3] is T1, PRMT1. Briefly: Active PRMT1 in MCF-7 nuclear extracts after estrogen stimulation. As to conditions: 10 nM E2, 5 minute time point. The experiment is classed as cell-based.

The source of these data is publication PMC3199286 (ACS chemical biology, 2011).

T1 sequence (Q99873 whole entry): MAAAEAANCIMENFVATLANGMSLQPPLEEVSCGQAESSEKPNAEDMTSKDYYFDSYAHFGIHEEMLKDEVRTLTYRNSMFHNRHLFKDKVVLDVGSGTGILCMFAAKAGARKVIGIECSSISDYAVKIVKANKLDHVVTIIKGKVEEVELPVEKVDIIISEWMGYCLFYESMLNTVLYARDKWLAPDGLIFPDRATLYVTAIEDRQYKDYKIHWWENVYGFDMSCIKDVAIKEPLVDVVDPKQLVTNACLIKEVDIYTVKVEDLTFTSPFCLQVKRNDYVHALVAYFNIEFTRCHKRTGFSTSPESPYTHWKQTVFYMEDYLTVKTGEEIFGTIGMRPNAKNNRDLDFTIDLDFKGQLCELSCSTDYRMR

For the substance “AcH4-21: peptide which consists of the first 21 amino acids of histone H4, highly efficient PRMT1 substrate”, the PRMT1 substrate quality result in the experiment with PRMT1 [1] is given as “highly efficient PRMT1 substrate”.

As for estrogen, the “increase of active PRMT1 in cytoplasm” value on PRMT1 [2] (10 nM E2, 5 minutes after addition, MCF-7) is 2.5 fold. In addition, at PRMT1 [2] (10 nM E2, MCF-7), the “time of maximum active PRMT1 in cytoplasm” value was 10 min and the “time of return of active cytoplasmic PRMT1 to basal levels” value is ~ 15 minutes. At PRMT1 [2] (10 nM E2, MCF-7, 10% loading control, Figure 6A lower panel), the “total PRMT1 levels in cytosolic and nuclear extracts (loading control) after estrogen” value is recorded as “remain constant”. Besides, the “maximum reduction of active PRMT1 in nucleus” value on PRMT1 [3] is on record as 3 fold.
